Data set [1] concerns L. donovani LV82 promastigotes. Kind of data set: Promastigote assay (proliferation). Type of data set: cell-based. The conditions noted are these: Leishmania donovani, n ≥ 3 independent experiments.
Description: Promastigote assay. The effect of the compounds on the proliferation of Leishmania donovani LV82 strain parasites (MHOM/ET/67:LV82) was carried out as outlined by Feng et al.^26
A further data set deals with J774 macrophages. The data set is described as follows: J774 macrophage assay. Type of data set: cell-based. As to conditions: Mus musculus; J774 murine macrophages; n ≥ 3 independent experiments.
In data set [2] the test system is intracellular L. donovani LV82 parasites. The data set is described as follows: L. donovani-infected macrophage assay (high content imaging). Format: cell-based, Leishmania donovani. As to conditions: for effect on intracellular parasites: at non-toxic concentrations. From the text: (§1) Evaluation in an infected macrophage model. Four of the compounds described above were selected for evaluation in an L. donovani infected macrophage model. […] An image-based assay employing murine peritoneal macrophages as host cells and DAPI as an indicator that was based on assays reported previously in the literature^23-24 was used to evaluate these compounds.
(§2) L. donovani-infected macrophage assay. The efficacy of selected target compounds against intracellular L. donovani LV82 parasites was conducted using murine peritoneal macrophages as the host cell in a high content imaging assay essentially as described by Joice et al.^24 and Abdelhameed et al.^28, with the following modifications. The density of peritoneal macrophages was 5×10^4 host cells/well, with the parasite/macrophage ratio remaining at 5:1. The concentration of 4,6-diamidino-2-phenylindole (DAPI) employed for nuclear staining was 4 μM. […] For the quantification of the infection, macrophage nuclei were selected first by DAPI staining with area larger than 30 μm^2. The cytoplasm was selected consequentially based on the nuclei with the digital phase contrast (DPC) channel. Parasites in the cytoplasm were selected based on relative intensity. Parasites per macrophage in each well were exported to a CSV file to generate dose responses, with data analysis performed as described by Joice et al.^24

Data set [3] has as its system murine peritoneal macrophages. The data set is described as follows: Host cell toxicity in the infected macrophage assay. Format: cell-based. The conditions noted are these: for host cell toxicity: 25 μM and below; for toxicity to host cells: 50 μM.
Description: as §1, §2

For a further data set, the target named is L. donovani CYP5122A1 (Leishmania donovani, UniProt Q2XQE3). Kind of data set: Leishmania CYP5122A1 inhibition assay. The conditions noted are these: comparator 18a. Format: biochemical.
Chain of L. donovani CYP5122A1 (Q2XQE3 entry or part of it): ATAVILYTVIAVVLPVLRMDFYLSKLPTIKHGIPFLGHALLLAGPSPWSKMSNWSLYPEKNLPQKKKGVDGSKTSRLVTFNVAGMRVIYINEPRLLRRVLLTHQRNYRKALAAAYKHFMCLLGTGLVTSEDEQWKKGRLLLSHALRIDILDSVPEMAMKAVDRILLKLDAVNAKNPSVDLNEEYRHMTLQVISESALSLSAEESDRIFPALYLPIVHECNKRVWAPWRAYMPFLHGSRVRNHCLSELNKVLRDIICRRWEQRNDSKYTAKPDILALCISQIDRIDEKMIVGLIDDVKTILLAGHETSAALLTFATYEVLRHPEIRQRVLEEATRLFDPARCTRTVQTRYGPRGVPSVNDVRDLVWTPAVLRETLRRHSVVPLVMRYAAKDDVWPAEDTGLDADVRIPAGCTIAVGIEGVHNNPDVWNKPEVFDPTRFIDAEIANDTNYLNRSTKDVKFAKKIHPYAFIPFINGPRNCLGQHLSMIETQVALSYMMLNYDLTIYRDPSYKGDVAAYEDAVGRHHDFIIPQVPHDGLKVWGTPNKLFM
The target in a further data set is L. donovani CYP51 (Leishmania donovani, UniProt A0A3S7WRS7). Kind of data set: Leishmania CYP51 inhibition assay. Format: biochemical. As to conditions: comparator 18a.
Chain of L. donovani CYP51 (A0A3S7WRS7 entry or part of it): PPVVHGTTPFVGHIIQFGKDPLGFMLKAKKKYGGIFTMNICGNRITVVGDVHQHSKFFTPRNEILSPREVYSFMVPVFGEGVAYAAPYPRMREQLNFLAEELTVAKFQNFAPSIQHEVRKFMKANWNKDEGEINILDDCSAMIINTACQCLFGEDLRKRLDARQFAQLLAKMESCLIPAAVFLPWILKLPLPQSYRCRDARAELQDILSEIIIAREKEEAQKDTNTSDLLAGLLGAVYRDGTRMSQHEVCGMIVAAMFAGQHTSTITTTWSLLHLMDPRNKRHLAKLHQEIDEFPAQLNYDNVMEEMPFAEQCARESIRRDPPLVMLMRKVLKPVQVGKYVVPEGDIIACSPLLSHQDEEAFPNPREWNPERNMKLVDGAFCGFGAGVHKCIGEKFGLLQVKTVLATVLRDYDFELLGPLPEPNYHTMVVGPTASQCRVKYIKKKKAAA
Where [4] appears, read: murine peritoneal macrophages as host cells, n=3 determinations.

Each structure is given as a SMILES string.

A word on the EC50: it is the concentration giving half of the maximal effect.

Description for J774 macrophages: J774 macrophage assay. This assay was performed as reported by Zhu et al.^27
Description for L. donovani CYP5122A1: Leishmania CYP51 and CYP5122A1 assays. The cloning, expression, purification, and inhibition assays performed with L. donovani CYP51 and CYP5122A1 were conducted as described in Wang et al.^19

For the compound `Cc1cc(C)cc(NC(=O)N2CCN(Cc3ccncc3)CC2)c1` [Compound 4a, N-(3,5-dimethylphenyl)-4-(pyridin-4-ylmethyl)piperazine-1-carboxamide], in data set [1], the EC50 was greater than 50 µM.

Compound `O=C(Nc1ccccc1)N1CCN(Cc2ccncc2)CC1` [Compound 4b, N-phenyl-4-(pyridin-4-ylmethyl)piperazine-1-carboxamide] showed an EC50 in data set [1] greater than 100 µM.

In data set [1], `Cc1ccccc1NC(=O)N1CCN(Cc2ccncc2)CC1` [Compound 4c, 4-(Pyridin-4-ylmethyl)-N-(o-tolyl)piperazine-1-carboxamide] yielded an EC50 greater than 100 µM.

In data set [1], `Cc1cccc(NC(=O)N2CCN(Cc3ccncc3)CC2)c1` [Compound 4d, 4-(Pyridin-4-ylmethyl)-N-(m-tolyl)piperazine-1-carboxamide] showed an EC50 greater than 100 µM.

In data set [1], `Cc1ccc(NC(=O)N2CCN(Cc3ccncc3)CC2)cc1` [Compound 4e, 4-(Pyridin-4-ylmethyl)-N-(p-tolyl)piperazine-1-carboxamide] came in with an EC50 greater than 100 µM.

With `Cc1cc(NC(=O)N2CCN(Cc3ccncc3)CC2)cc(C)c1C` [Compound 4f, 4-(pyridin-4-ylmethyl)-N-(3,4,5-trimethylphenyl)piperazine-1-carboxamide], the EC50 in data set [1] was greater than 50 µM.

As for `CC(C)(C)c1cccc(NC(=O)N2CCN(Cc3ccncc3)CC2)c1` [Compound 4g, N-(3-(tert-butyl)phenyl)-4-(pyridin-4-ylmethyl)piperazine-1-carboxamide], the EC50 in the data set on J774 macrophages is greater than 50 µM. The “effect on intracellular parasites” value in data set [2] was “little effect”.

The compound `COc1cccc(NC(=O)N2CCN(Cc3ccncc3)CC2)c1` [Compound 4i, N-(3-methoxyphenyl)-4-(pyridin-4-ylmethyl)piperazine-1-carboxamide] came in with an EC50 in data set [1] greater than 100 µM.

In the case of `COc1ccc(NC(=O)N2CCN(Cc3ccncc3)CC2)cc1` [Compound 4j, N-(4-methoxyphenyl)-4-(pyridin-4-ylmethyl)piperazine-1-carboxamide], the EC50 in data set [1] is greater than 100 µM.

In turn, `COc1cc(NC(=O)N2CCN(Cc3ccncc3)CC2)cc(OC)c1` [Compound 4k, N-(3,5-dimethoxyphenyl)-4-(pyridin-4-ylmethyl)piperazine-1-carboxamide] showed an EC50 in data set [1] greater than 100 µM.

`CC(C)Oc1cccc(NC(=O)N2CCN(Cc3ccncc3)CC2)c1` [Compound 4l, N-(3-isopropoxyphenyl)-4-(pyridin-4-ylmethyl)piperazine-1-carboxamide]: the EC50 in data set [1] was greater than 50 µM.

The compound `O=C(Nc1ccccc1Cl)N1CCN(Cc2ccncc2)CC1` [Compound 4m, N-(2-chlorophenyl)-4-(pyridin-4-ylmethyl)piperazine-1-carboxamide] registered an EC50 in data set [1] greater than 100 µM.

Compound `O=C(Nc1cccc(Cl)c1)N1CCN(Cc2ccncc2)CC1` [Compound 4n, N-(3-chlorophenyl)-4-(pyridin-4-ylmethyl)piperazine-1-carboxamide] had an EC50 in data set [1] greater than 100 µM.

With `O=C(Nc1ccc(Cl)cc1)N1CCN(Cc2ccncc2)CC1` [Compound 4o, N-(4-chlorophenyl)-4-(pyridin-4-ylmethyl)piperazine-1-carboxamide], in data set [1], the EC50 is greater than 100 µM.

Compound `O=C(Nc1cccc(F)c1)N1CCN(Cc2ccncc2)CC1` [Compound 4q, N-(3-fluorophenyl)-4-(pyridin-4-ylmethyl)piperazine-1-carboxamide] had an EC50 in data set [1] greater than 100 µM.

Compound `O=C(Nc1ccc(F)cc1)N1CCN(Cc2ccncc2)CC1` [Compound 4r, N-(4-fluorophenyl)-4-(pyridin-4-ylmethyl)piperazine-1-carboxamide] yielded an EC50 in data set [1] greater than 100 µM.

Consider `O=C(Nc1cc(F)cc(F)c1)N1CCN(Cc2ccncc2)CC1` [Compound 4s, N-(3,5-difluorophenyl)-4-(pyridin-4-ylmethyl)piperazine-1-carboxamide], for which the EC50 in data set [1] was greater than 100 µM.

Consider `O=C(Nc1cccc(C(F)(F)F)c1)N1CCN(Cc2ccncc2)CC1` [Compound 4t, 4-(Pyridin-4-ylmethyl)-N-(3-(trifluoromethyl)phenyl)piperazine-1-carboxamide], for which the midpoint of the response in data set [1], the EC50, lay at 48 µM.

Consider `O=C(Nc1ccc(C(F)(F)F)cc1)N1CCN(Cc2ccncc2)CC1` [Compound 4u, 4-(Pyridin-4-ylmethyl)-N-(4-(trifluoromethyl)phenyl)piperazine-1-carboxamide], for which, in data set [1], the EC50 is greater than 50 µM.

`O=C(Nc1cc(C(F)(F)F)cc(C(F)(F)F)c1)N1CCN(Cc2ccncc2)CC1` [Compound 4v, N-(3,5-bis(trifluoromethyl)phenyl)-4-(pyridin-4-ylmethyl)piperazine-1-carboxamide] returned an EC50 in data set [1] of roughly 10 µM. The “effect on intracellular parasites” value in data set [2] was “little effect”.

The compound `O=C(Nc1ccc(OCc2cc(C(F)(F)F)cc(C(F)(F)F)c2)cc1)N1CCN(CCCc2ccccc2)CC1` [Compound 18ab, N-(4-((3,5-bis(trifluoromethyl)benzyl)oxy)phenyl)-4-(3-phenylpropyl)piperazine-1-carboxamide] returned an EC50 in data set [1] greater than 50 µM.

`O=C(Nc1ccc(OCc2cc(C(F)(F)F)cc(C(F)(F)F)c2)cc1)N1CCN(CCc2ccncc2)CC1` [Compound 18e, N-(4-((3,5-bis(trifluoromethyl)benzyl)oxy)phenyl)-4-(2-(pyridin-4-yl)ethyl)piperazine-1-carboxamide]: in data set [2] (Leishmania donovani, Peritoneal macrophage, murine peritoneal macrophages as host cells, n=3 determinations, read-out: EC50 against intracellular L. donovani), the EC50 amounted to 4 µM. Moreover, the “EC50 against intracellular L. donovani” value in data set [2] (setting [4]) is “low micromolar range”. Further, in data set [3], the host cell toxicity entry was “lower” and the “toxicity to host cells” value is “exhibited toxicity to host cells”. In addition, the “increase in inhibitory potency against CYP5122A1 compared to hit compound 18a” value on L. donovani CYP5122A1 is reported as 3.4 fold.

With `COc1cc(COc2ccc(NC(=O)N3CCN(CCc4ccncc4)CC3)cc2)cc(OC)c1` [Compound 18g, N-(4-((3,5-dimethoxybenzyl)oxy)phenyl)-4-(2-(pyridin-4-yl)ethyl)piperazine-1-carboxamide], at L. donovani CYP51, the “decrease in activity against CYP51 compared to hit compound 18a” value is reported as 1.8 fold. Moreover, the “decrease in potency against CYP5122A1 compared to hit compound 18a” value at L. donovani CYP5122A1 is 3.0 fold.

For the compound `CC(C)(C)c1cc(COc2ccc(NC(=O)N3CCN(CCc4ccncc4)CC3)cc2)cc(C(C)(C)C)c1` [Compound 18i, N-(4-((3,5-di-tert-butylbenzyl)oxy)phenyl)-4-(2-(pyridin-4-yl)ethyl)piperazine-1-carboxamide], the “EC50 against intracellular L. donovani” value in data set [2] (setting [4]) is “low micromolar range”. In data set [3], the host cell toxicity result was “lower” and the “toxicity to host cells” value is on record as “exhibited toxicity to host cells”. Further, the “increase in inhibitory potency against CYP5122A1 compared to hit compound 18a” value at L. donovani CYP5122A1 is recorded as 2.2 fold.

With `O=C(Nc1ccc(OCc2cc(C(F)(F)F)cc(C(F)(F)F)c2)cc1)N1CCN(CCn2cccn2)CC1` [Compound 18o, 4-(2-(1H-pyrazol-1-yl)ethyl)-N-(4-((3,5-bis(trifluoromethyl)benzyl)oxy)phenyl)piperazine-1-carboxamide], the EC50 in data set [1] is 30 µM.

Turning to `O=C(Nc1ccc(OCc2cc(C(F)(F)F)cc(C(F)(F)F)c2)cc1)N1CCN(CCn2cncn2)CC1` [Compound 18q, 4-(2-(1H-1,2,4-triazol-1-yl)ethyl)-N-(4-((3,5-bis(trifluoromethyl)benzyl)oxy)phenyl)piperazine-1-carboxamide], the EC50 (in data set [1]; in the data set with J774 macrophages) was greater than 50 µM in each case.

The compound `O=C(Nc1ccc(OCc2cc(C(F)(F)F)cc(C(F)(F)F)c2)cc1)N1CCN(CCc2ccccc2)CC1` [Compound 18r, N-(4-((3,5-bis(trifluoromethyl)benzyl)oxy)phenyl)-4-phenethylpiperazine-1-carboxamide] registered an EC50 in data set [1] greater than 12.5 µM.

Turning to `COc1ccc(CCN2CCN(C(=O)Nc3ccc(OCc4cc(C(F)(F)F)cc(C(F)(F)F)c4)cc3)CC2)cc1` [Compound 18x, N-(4-((3,5-bis(trifluoromethyl)benzyl)oxy)phenyl)-4-(4-methoxyphenethyl)piperazine-1-carboxamide], in the data set on J774 macrophages, the EC50 was determined as 8.3 µM.

Source of the values: patent publication US20260083728A1, “COMPOUNDS FOR TREATING INFECTIONS WITH PARASITIC PROTOZOA” (OHIO STATE INNOVATIION FOUNDATION, priority 2022, published 2026).
